Assay results: US12201610B2, “Compositions comprising aticaprant” (Janssen Pharmaceuticals, Inc., priority 2022, dated 2025)

Assays:
subjects with MDD [1] = assay: SMDDS total score (Example 6); assay type: in vivo, human; conditions: 10 mg; Treatment Week 6; 59 subjects analyzed
Description: SMDDS is a subjective rating of the patient. The SMDDS is a 16-item PRO measure. Each item is rated by the subject according to a 5-point Likert scale. Subjects respond to each question using a rating scale between 0 (“Not at all” or “Never”) to 4 (“Extremely” or “Always”). The total score ranges […]. The SMDDS uses a 7-day recall period and verbal rating scales. Higher score indicates more severe depressive symptomatology.
iv. To investigate the effect of aticaprant on symptoms of depression using the Clinical Global Impression-Severity (CGI-S), the patient reported Symptoms of Major Depressive Disorder Scale (SMDDS) and the self-assessment of treatment experience (SATE).
• (i) Depression: Montgomery-Åsberg Depression Rating Scale (MADRS), Clinical Global Impression-Severity (CGI-S), Symptoms of Major Depressive Disorder Scale (SMDDS), and Self-assessment of treatment experience (SATE) • (ii) Anhedonia: Snaith-Hamilton Pleasure Scale (SHAPS) • (iii) Anxiety: Structured Interview Guide for the Hamilton Anxiety scale (SIGH-A) and HAM-A6 • (iv) Effects on Cognition: The Cognitive and Physical Functioning Questionnaire (CPFQ) • (v) Safety assessments

subjects with MDD [2] = assay: MADRS total score, adjunctive aticaprant vs placebo in MDD (Example 6)
[3] = eITT Analysis Set, High anhedonia, Treatment Week 1
[4] = eITT Analysis Set, High anhedonia, Treatment Week 3
[5] = eITT Analysis Set, High anhedonia, Treatment Week 4
[6] = eITT Analysis Set, High anhedonia, Treatment Week 5
[7] = eITT Analysis Set, High anhedonia, Treatment Week 6
[8] = eITT Analysis Set, Low anhedonia, Treatment Week 1
[9] = eITT Analysis Set, Low anhedonia, Treatment Week 3
[10] = eITT Analysis Set, Low anhedonia, Treatment Week 4
[11] = eITT Analysis Set, Low anhedonia, Treatment Week 5
[12] = eITT Analysis Set, Low anhedonia, Treatment Week 6
[13] = eITT, Treatment Week 1, 10 mg adjunctive to SSRI/SNRI
[14] = eITT, Treatment Week 3, 10 mg adjunctive to SSRI/SNRI
[15] = eITT, Treatment Week 4, 10 mg adjunctive to SSRI/SNRI
[16] = eITT, Treatment Week 5, 10 mg adjunctive to SSRI/SNRI
[17] = eITT, Treatment Week 6, 10 mg adjunctive to SSRI/SNRI

Cc1cc(C)cc(C2CCCN2Cc2ccc(Oc3ccc(C(N)=O)cc3F)cc2)c1 (stereo not shown) [aticaprant, 3-fluoro-4-4-2-(3,5-dimethylphenyl)pyrrolidin-1-yl-methylphenoxybenzamide]
Change from Treatment Baseline in SMDDS Total Score, Arithmetic Mean (SD) (subjects with MDD [1]): −8.03 ± 9.957 Scores on a scale | Change from Treatment Baseline in MADRS Total Score, Least Squares Mean (Standard Error) (subjects with MDD [2]; Treatment Week 6, both responders and non-responders during placebo lead-in, 10 mg): −9.6 ± 0.79 score on a scale | MADRS Total Score Least Squares Mean Difference, point estimate (subjects with MDD [2]; Treatment Week 6, both responders and non-responders during placebo lead-in, 10 mg vs placebo): −3.1 score on a scale | MADRS Total Score Effect size (subjects with MDD [2]; [3]): −0.39 | MADRS Total Score Mean Change from Baseline (SD) (subjects with MDD [2]; [3]): −4.6 (5.25) | MADRS Total Score Mean Change to Placebo (SD pooled) (subjects with MDD [2]; [3]): −1.8 (4.69) | MADRS Total Score Effect size (subjects with MDD [2]; [4]): −0.46 | MADRS Total Score Mean Change from Baseline (SD) (subjects with MDD [2]; [4]): −6.7 (6.83) | MADRS Total Score Mean Change to Placebo (SD pooled) (subjects with MDD [2]; [4]): −3.0 (6.59) | MADRS Total Score Effect size (subjects with MDD [2]; [5]): −0.30 | MADRS Total Score Mean Change from Baseline (SD) (subjects with MDD [2]; [5]): −8.5 (7.26) | MADRS Total Score Mean Change to Placebo (SD pooled) (subjects with MDD [2]; [5]): −2.2 (7.30) | MADRS Total Score Effect size (subjects with MDD [2]; [6]): −0.33 | MADRS Total Score Mean Change from Baseline (SD) (subjects with MDD [2]; [6]): −9.7 (8.18) | MADRS Total Score Mean Change to Placebo (SD pooled) (subjects with MDD [2]; [6]): −2.6 (7.93) | MADRS Total Score Effect size (subjects with MDD [2]; [7]): −0.38 | MADRS Total Score Mean Change from Baseline (SD) (subjects with MDD [2]; [7]): −11.5 (8.95) | MADRS Total Score Mean Change to Placebo (SD pooled) (subjects with MDD [2]; [7]): −3.4 (8.98) | MADRS Total Score Effect size (subjects with MDD [2]; [8]): −0.12 | MADRS Total Score Mean Change from Baseline (SD) (subjects with MDD [2]; [8]): −2.3 (5.03) | MADRS Total Score Mean Change to Placebo (SD pooled) (subjects with MDD [2]; [8]): −0.5 (4.30) | MADRS Total Score Effect size (subjects with MDD [2]; [9]): −0.01 | MADRS Total Score Mean Change from Baseline (SD) (subjects with MDD [2]; [9]): −4.9 (5.99) | MADRS Total Score Mean Change to Placebo (SD pooled) (subjects with MDD [2]; [9]): −0.1 (5.85) | MADRS Total Score Effect size (subjects with MDD [2]; [10]): 0.01 | MADRS Total Score Mean Change from Baseline (SD) (subjects with MDD [2]; [10]): −6.4 (7.40) | MADRS Total Score Mean Change to Placebo (SD pooled) (subjects with MDD [2]; [10]): 0.0 (6.80) | MADRS Total Score Effect size (subjects with MDD [2]; [11]): 0.05 | MADRS Total Score Mean Change from Baseline (SD) (subjects with MDD [2]; [11]): −7.2 (6.46) | MADRS Total Score Mean Change to Placebo (SD pooled) (subjects with MDD [2]; [11]): 0.3 (6.65) | MADRS Total Score Effect size (subjects with MDD [2]; [12]): −0.11 | MADRS Total Score Mean Change from Baseline (SD) (subjects with MDD [2]; [12]): −9.2 (8.01) | MADRS Total Score Mean Change to Placebo (SD pooled) (subjects with MDD [2]; [12]): −0.9 (8.13) | MADRS Total Score Change from Baseline LSMean (SE), MMRM (subjects with MDD [2]; [13]): −3.2 | MADRS Total Score LSMean Difference (SE) Treatment - Placebo, MMRM (subjects with MDD [2]; [13]): −1.2 (1.24) | MADRS Total Score Mean (SD) (subjects with MDD [2]; [13]): 25.4 | MADRS Total Score Mean Change from Baseline (SD) (subjects with MDD [2]; [13]): −3.3 | MADRS Total Score Mean Change to Placebo (SD pooled) (subjects with MDD [2]; [13]): −1.1 (4.52) | MADRS Total Score Mean Change from Baseline (SD) (subjects with MDD [2]; eITT, Treatment Week 1, 10 mg adjunctive to SSRI/SNRI, listed as Aticaprant): −3.3 (5.21) | MADRS Total Score Effect size (subjects with MDD [2]; eITT, Treatment Week 1, vs placebo, negative favors aticaprant): −0.24 | MADRS Total Score Change from Baseline LSMean (SE), MMRM (subjects with MDD [2]; [14]): −5.6 | MADRS Total Score LSMean Difference (SE) Treatment - Placebo, MMRM (subjects with MDD [2]; [14]): −1.5 (1.25) | MADRS Total Score Mean (SD) (subjects with MDD [2]; [14]): 23.1 | MADRS Total Score Mean Change from Baseline (SD) (subjects with MDD [2]; [14]): −5.7 | MADRS Total Score Mean Change to Placebo (SD pooled) (subjects with MDD [2]; [14]): −1.4 (6.18) | MADRS Total Score Mean Change from Baseline (SD) (subjects with MDD [2]; eITT, Treatment Week 3, 10 mg adjunctive to SSRI/SNRI, listed as Aticaprant): −5.7 (6.38) | MADRS Total Score Effect size (subjects with MDD [2]; eITT, Treatment Week 3, vs placebo, negative favors aticaprant): −0.22 | MADRS Total Score Change from Baseline LSMean (SE), MMRM (subjects with MDD [2]; [15]): −7.3 | MADRS Total Score LSMean Difference (SE) Treatment - Placebo, MMRM (subjects with MDD [2]; [15]): −1.1 (1.25) | MADRS Total Score Mean (SD) (subjects with MDD [2]; [15]): 21.5 | MADRS Total Score Mean Change from Baseline (SD) (subjects with MDD [2]; [15]): −7.3 | MADRS Total Score Mean Change to Placebo (SD pooled) (subjects with MDD [2]; [15]): −0.9 (7.00) | MADRS Total Score Mean Change from Baseline (SD) (subjects with MDD [2]; eITT, Treatment Week 4, 10 mg adjunctive to SSRI/SNRI, listed as Aticaprant): −7.3 (7.35) | MADRS Total Score Effect size (subjects with MDD [2]; eITT, Treatment Week 4, vs placebo, negative favors aticaprant): −0.14 | MADRS Total Score Change from Baseline LSMean (SE), MMRM (subjects with MDD [2]; [16]): −8.7 | MADRS Total Score LSMean Difference (SE) Treatment - Placebo, MMRM (subjects with MDD [2]; [16]): −1.5 (1.25) | MADRS Total Score Mean (SD) (subjects with MDD [2]; [16]): 20.5 | MADRS Total Score Mean Change from Baseline (SD) (subjects with MDD [2]; [16]): −8.4 | MADRS Total Score Mean Change to Placebo (SD pooled) (subjects with MDD [2]; [16]): −1.1 (7.25) | MADRS Total Score Mean Change from Baseline (SD) (subjects with MDD [2]; eITT, Treatment Week 5, 10 mg adjunctive to SSRI/SNRI, listed as Aticaprant): −8.4 (7.36) | MADRS Total Score Effect size (subjects with MDD [2]; eITT, Treatment Week 5, vs placebo, negative favors aticaprant): −0.14 | percentage of subjects with MADRS remission (MADRS total score ≤10) (subjects with MDD [2]; eITT, Treatment Week 6): 16.9% | percentage of subjects with ≥30% improvement in MADRS total score (subjects with MDD [2]; eITT, Treatment Week 6): 57.6% | percentage of subjects with ≥50% improvement in MADRS total score (subjects with MDD [2]; eITT, Treatment Week 6): 35.6% | MADRS Total Score Change from Baseline LSMean (SE), MMRM (subjects with MDD [2]; [17]): −10.1 | MADRS Total Score Mean (SD) (subjects with MDD [2]; [17]): 18.6 | MADRS Total Score Mean Change from Baseline (SD) (subjects with MDD [2]; [17]): −10.2 (8.44)
